Data as given in patent US4451473A, “3,7-Diazabicyclo [3.3.1] nonanes having anti-arrhythmic activity” (Richter Gedeon Vegyeszeti Gyar Rt., priority 1981, dated 1984).
Counter-ions that a name gives are not always drawn.

Legend:
[1] = test system: disorders of cardiac rhythm provoked by aconitine in rats; type: in vivo; conditions: ED50 rat i.v. / LD50 mouse i.v.
Method: When examining the antiarrhythmic effects, rats were pre-treated intravenously with 1 mg/kg of aconitine to provoke disorders of cardiac rhythm [Med. Exp. (Basel) 10, 93 (1964)], thereafter the test compound was administered intravenously, and the dose required to restore the rhythm in 50% (ED50 mg/kg) was determined.

[2] = in vivo; conditions: mouse, iv
[3] = test system: calcium antagonistic effect; assay: Calcium antagonistic effect (pA2)

| SMILES | Therap. index (ED50/LD50) [1] | LD50 [2] | calcium antagonistic effect (pA2) [3] |
| --- | --- | --- | --- |
| CCCCN1CC2CN(CCCC)CC(C1)C2OC(=O)c1ccc(Cl)cc1 (stereo not shown) [3,7-di-n-butyl-9-(4'-chlorobenzoyloxy)-3,7-diazabicyclo[3.3.1]nonane] | 0.050 | 5 mg/kg | – |
| CN1CC2CN(C)CC(C1)C2Oc1ccccc1.O=C(O)/C=C/C(=O)O (stereo not shown) [3,7-dimethyl-9-phenoxy-3,7-diazabicyclo[3.3.1]nonane fumarate] | 0.029 | 39 mg/kg | – |
| CCN1CC2CN(CC)CC(C1)C2OC(=O)c1ccc(Cl)cc1.Cl.Cl.O (stereo not shown) [3,7-diethyl-9-(4'-chloro-benzoyloxy)-3,7-diazabicyclo[3.3.1]nonane dihydrochloride monohydrate] | 0.036 | 11 mg/kg | – |
| CN1CC2CN(C)CC(C1)C2OC(=O)C1c2ccccc2Oc2ccccc21 (stereo not shown) [3,7-dimethyl-9-(xanthene-9'-carbonyloxy)-3,7-diazabicyclo[3.3.1]nonane] | 0.019 | 14 mg/kg | – |
| CN1CC2CN(C)CC(C1)C2OC(c1ccccc1)c1ccccc1.O=C(O)/C=C/C(=O)O (stereo not shown) [3,7-Dimethyl-9-benzhydryloxy-3,7-diazabicyclo[3.3.1]nonane fumarate] | 0.057 | 21 mg/kg | – |
| CCN1CC2CN(C)CC(C1)C2Oc1ccccc1Cl (stereo not drawn) [3-Methyl-7-ethyl-9α-(2'-chlorophenoxy)-3,7-diazabicyclo[3.3.1]nonanedihydrochloride] | 0.041 | 28 mg/kg | – |
| CCN1CC2CN(C)CC(C1)C2Oc1ccc(Cl)cc1 (stereo not drawn) [3-Methyl-7-ethyl-9α-(4'-chlorophenoxy)-3,7-diazabicyclo[3.3.1]nonanedihydrochloride] | 0.030 | 41 mg/kg | – |
| CN1CC2CN(C)CC(C1)C2Oc1ccc(Cl)cc1.O=C(O)/C=C/C(=O)O (stereo not shown) [3,7-Dimethyl-9-(4'-chlorophenoxy)-3,7-diazabicyclo[3.3.1]nonane fumarate] | 0.017 | 52 mg/kg | – |
| CN1CC2CN(C)CC(C1)C2OC(=O)c1ccc2ccccc2c1 (stereo not shown) [3,7-dimethyl-9-(2'-naphthoyloxy)-3,7-diazabicyclo[3.3.1]nonane] | 0.006 | 17 mg/kg | – |
| CCN1CC2CN(C)CC(C1)C2OC(=O)c1ccc(-c2ccccc2)cc1 (stereo not drawn) [3-Methyl-7-ethyl-9α-(4'-phenyl-benzoyloxy)-3,7-diazabicyclo[3.3.1]nonane] | 0.061 | 19.5 mg/kg | – |
| CCOc1ccc(C(=O)OC2C3CN(C)CC2CN(C)C3)cc1OC (stereo not shown) [3,7-Dimethyl-9-(3'-methoxy-4'-ethoxy-benzoyloxy)-3,7-diazabicyclo[3.3.1]nonane] | 0.074 | 13.5 mg/kg | – |
| COc1ccc(CCN(C)CCCC(C#N)(c2ccc(OC)c(OC)c2)C(C)C)cc1OC (racemic) [Verapramil, reference compound] | – | – | 4.58-4.7 |
| CCN1CC2CN(C)CC(C1)C2OC(=O)c1ccc(Cl)cc1 (stereo not drawn) [3-Methyl-7-ethyl-9α-(4'-chloro-benzoyloxy)-3,7-diazabicyclo[3.3.1]nonane dihydrochloride] | – | – | 4.33-4.6 |
| CCN1CC2CN(C)CC(C1)C2OC(=O)c1ccc(Cl)cc1Cl (stereo not drawn) [3-Methyl-7-ethyl-9α-(2',4'-dichloro-benzoyloxy)-3,7-diazabicyclo[3.3.1]nonane dihydrochloride] | 0.055 | 20 mg/kg | – |
| CN1CC2CN(C)CC(C1)C2OC(=O)c1ccccc1 (stereo not shown) [3,7-Dimethyl-9-benzoyloxy-3,7-diazabicyclo[3.3.1]nonane] | 0.009 | 9 mg/kg | – |
